System: SMS-KCNR cells
Experiment: Proliferation of apoptosis-resistant NB cells
Type: cell-based
Conditions: data not shown
Method: NB is characterized with defective apoptotic pathways. […] Neuronal (N-) type SH-SY5Y and IMR-32 cells, and stromal (S-) type SMS-KCNR cells which are resistant to apoptosis were used. […] A defect in caspase-8 or its activation causes resistance to apoptosis and in turn to chemotherapy in all these cells. On the other hand, these cells carry intact intrinsic apoptotic pathway, and executioner caspase-3 is activated by caspase-9 route.
In depth studies were carried out to assess the activation of intrinsic and extrinsic apoptotic pathways. […] Caspase-9 was activated by B3CD in these cells (FIG. 10B), indicating an active role of intrinsic pathway of apoptosis. […] However, caspase-8 was undetectable in IMR-32 and SH-SY5Y cells.

## C=C1CC[C@H](OC(=O)CBr)C/C1=C/C=C1\CCC[C@]2(C)[C@@H]([C@H](C)CCCC(C)(C)O)CC[C@@H]12 [B3CD, bromoacetic acid 3-{2-[1-(5-hydroxy-1,5-dimethyl-hexyl)-7a-methyl-octahydro-inden-4-ylidene]-ethylidene}-4-methylene-cyclohexyl ester]
  inhibition of proliferation: dose dependent inhibition of proliferation
